Results published in US7846473B2, “Irinotecan preparation” (Terumo Kabushiki Kaisha, priority 2004, dated 2010).

How the values were obtained:
Type in all cases: in vivo
[1] = system: Human colon cancer cells (HT-29); experiment: Antitumor effect, human colon cancer HT-29 transplanted in mouse; details: HT-29 in BALB/c nude mouse; for Inhibition rate (%) / Tumor weight (g, mean ± S.D.): 21 days after injection
Protocol: Human colon cancer cells (HT-29) with 2 to 3 mm square were transplanted subcutaneously in an inguinal region of a mouse (BALB/c nude, male, 6 weeks old, CLEA Japan, Inc.) with a needle for transplantation. […] Mice without injection of either agent were employed as a control group.
The estimated volume of tumors and a body weight of the mouse were calculated at 4, 8, 12, 17, 21 days after a first injection. The tumors were also removed 21 days after the injection and the weight of the tumors were measured, to thereby calculate a tumor proliferation inhibition rate, I.R. (%) by the formula as shown in Test Example 6.

[2] = Pharmacokinetics due to single administration in Meth A tumor-bearing mouse (plasma and tumor); details: Meth A-bearing BALB/c mouse, 10 mg/kg i.v.
Protocol: Mouse fibrosarcoma (Meth A), 2.5×10^5 cells/mouse were transplanted subcutaneously in an inguinal region of a mouse (BALB/c, female, 7 weeks old, Japan SLC, Inc.).
After administration, blood in a heart was collected after 10, and 30 minutes, and 1, 3, 6, 12, 24, 48, and 96 hours, and was treated in a centrifuge (15,000 rpm, 1 minute, 0° C.), to thereby obtain plasma. The obtained plasma was diluted 50-fold with 0.146 M H3PO4, and was added to an equal amount of internal standard solution, as a sample for measurement of CPT-11 concentration in the plasma of an animal administered with the CPT-11 formulation.
After blood in the heart was collected, tumors were removed from the inguinal area and washed with physiological saline, and then tumor weight was measured. The resultant tumor was added to an amount of 5 times of cooled 0.146 M.H3PO4, and homogenized with a teflon homogenizer. 200 μL of the resulting homogenized tumor was added to 50 μL of internal standard solution and 0.75 ml of methanol, suspended, and then left to stand for over night at −20° C. […] Each concentration of the resultant sample for measurement was measured with a PROSPEKT-HPLC according to Kurita method (J Chromoatogr B 724, pp. 335-344, 1999.), or the like.

[3] = system: Human lung cancer cells (QG56); experiment: Antitumor effect, human lung cancer QG56 transplanted in mouse; details: QG56 in BALB/c nude mouse; for Inhibition rate (%) / Tumor weight (g, mean ± S.D.): 21 days after first injection
Protocol: Human lung cancer cells (QG56) with 2 to 3 mm square were transplanted subcutaneously in an inguinal region of a mouse (BALB/c nude, male, 6 weeks old, CLEA Japan, Inc.) with a needle for transplantation. […] Mice without injection of either agent were employed as a control group.
The estimated volume of each tumor and a body weight of the mouse were calculated 4, 8, 12, 16, and 21 days after the first injection. The tumors were also removed 21 days after the first injection and a weight of the tumors was measured, to thereby calculate each tumor proliferation inhibition rate, I.R. (%) by the formula as shown in Test Example 6. The results are shown in Table 16, FIG. 28, and FIG. 29.

[4] = system: Mouse fibrosarcoma (Meth A); experiment: Antitumor effect due to administration of a drug three times, Meth A; details: Meth A in BALB/c mouse; for Inhibition rate (%) / Tumor weight (g, mean ± S.D.): 21 days from transplantation
Protocol: Mouse fibrosarcoma (Meth A), 2.5×10^5 cells/mouse were transplanted subcutaneously in an inguinal region of a mouse (BALB/c, female, 7 weeks old, CLEA Japan, Inc.). […] Mice without injection of either agent were employed as a control group.
The tumors were also removed after 21 days from the transplantation and weight of the tumors was measured, to thereby calculate each tumor proliferation inhibition rate, I.R. (%) by the formula as shown in Test Example 6.

[5] = system: Mouse fibrosarcoma (Meth A); experiment: Antitumor effect due to administration of a drug once or twice, Meth A; details: Meth A in BALB/c mouse; for Inhibition rate (%) / Tumor weight (g, mean ± S.D.): 21 days from transplantation
Protocol: Mouse fibrosarcoma (Meth A), 2.5×10^5 cells/mouse were transplanted subcutaneously in an inguinal region of a mouse (BALB/c, female, 7 weeks old, CLEA Japan, Inc.). […] Mice without injection of any agent were employed as a control group.
The tumors were also removed after 21 days from the transplantation and weight of the tumors was measured, to thereby calculate tumor proliferation inhibition rate, I.R. (%) by the formula as shown in Test Example 6.

[6] = Pharmacokinetics in cynomolgus monkey
Protocol: Providing 50 μL of blood plasma with 550 μL of an internal standard solution B (a methanol solution of internal standard substances) and employing centrifugal force, the supernatant was diluted with methanol 100-fold as a sample for the total CPT-11 concentration measurement. Meanwhile, Providing 50 μL of each blood plasma with 200 μL of an internal standard solution A (0.147 mol/L H3PO4 solution of internal standard substances), 200 μL thereof was subjected to a centrifugal separation (100,000×g, for 30 min, 10° C.). 100 μL in upper layer were separated and were employed solid-phase extraction, to obtain the eluent as samples for free CPT-11 (i.e., CPT-11 released from liposome, hereinafter referred as “liposome-released CPT-11”) concentration measurement, SN-38 concentration measurement, and SN-38G (SN-38 10-O-gluclonide) concentration measurement. The samples obtained were measured each concentration thereof with LC/MS/MS. FIGS. 8 to 11 show the results.

[7] = system: human prostatic cancer cells (PC-3); experiment: Antitumor effect, human prostatic cancer PC-3 implanted in mouse; details: PC-3 in BALB/c nude mouse; for Inhibition rate (%) / Tumor weight (g, mean ± S.D.): Day 22
Description: 2.5×10^6 cells/mouse of human prostatic cancer cells (PC-3) were implanted subcutaneously in left inguinal region of the mouse (BALB/c nude, male, 6 weeks old, Charles River Japan, Inc.). After implanting tumors, a presumptive tumor volume calculated by ½·ab^2 (a represents a longitudinal diameter of a tumor and b represents a short axis diameter thereof). […] There were mice without injection of either agent as a control group.
A presumptive tumor volume and a body weight of a mouse were measured at Days 1, 5, 9, 12, 16, and 22.
After extracting tumors and measuring a weight thereof at Day 22, further, an inhibition rate of tumor growth I.R. (%) was calculated by the following formula. I.R. %=(1−average tumor weight in a treatment group/average tumor weight in a control group)×100

[8] = 50 mg/kg i.v., treatment on days 7, 9, 11
[9] = 50 mg/kg i.v., treatment on days 7, 11, 15
[10] = 100 mg/kg i.v., treatment on days 7, 9, 11
[11] = 100 mg/kg i.v., treatment on days 7, 11, 15
[12] = 12.5 mg/kg i.v., treatment on day 7
[13] = 12.5 mg/kg i.v., treatment on days 7, 11
[14] = 25 mg/kg i.v., treatment on day 7
[15] = 25 mg/kg i.v., treatment on day 11
[16] = 25 mg/kg i.v., treatment on days 7, 11
[17] = 50 mg/kg i.v., treatment on day 7
[18] = 50 mg/kg i.v., treatment on day 11
[19] = 50 mg/kg i.v., treatment on days 7, 11

CCc1c2c(nc3ccc(OC(=O)N4CCC(N5CCCCC5)CC4)cc13)-c1cc3c(c(=O)n1C2)COC(=O)[C@]3(O)CC [(+)-(4S)-4,11-diethyl-4-hydroxy-9-[(4-piperidino-piperidino)carbonyloxy]-1H-pyrano[3′,4′:6,7]indolizino[1,2-b]quinolin-3,14(4H,12H)-dione]
tumor proliferation compared with the control group [1]: strong tumor proliferation inhibitory effect
Inhibition rate (%) ([1]; 25 mg/kg i.v. days 1, 5, 9): 38.2%
Tumor weight (g, mean ± S.D.) ([1]; 25 mg/kg i.v. days 1, 5, 9): 0.36 ± 0.41 g
Inhibition rate (%) ([1]; 50 mg/kg i.v. days 1, 5, 9): 24.9%
Tumor weight (g, mean ± S.D.) ([1]; 50 mg/kg i.v. days 1, 5, 9): 0.44 ± 0.36 g
Inhibition rate (%) ([1]; 100 mg/kg i.v. days 1, 5, 9): 44.0%
Tumor weight (g, mean ± S.D.) ([1]; 100 mg/kg i.v. days 1, 5, 9): 0.33 ± 0.32 g
effect on body weight of the mouse ([1]; 25-100 mg/kg i.v. days 1, 5, 9): didn't affect the body weight of the mouse
time of maximum concentration of irinotecan hydrochloride in the tumor tissue [2]: 0.5 h
tumor proliferation compared to the control group [3]: significant tumor proliferation inhibitory effect
Inhibition rate (%) ([3]; 25 mg/kg i.v. days 1, 5, 9): 35.5%
Tumor weight (g, mean ± S.D.) ([3]; 25 mg/kg i.v. days 1, 5, 9): 1.88 ± 0.43 g
Inhibition rate (%) ([3]; 50 mg/kg i.v. days 1, 5, 9): 48.7%
Tumor weight (g, mean ± S.D.) ([3]; 50 mg/kg i.v. days 1, 5, 9): 1.49 ± 0.51 g
Inhibition rate (%) ([3]; 100 mg/kg i.v. days 1, 5, 9): 67.2%
Tumor weight (g, mean ± S.D.) ([3]; 100 mg/kg i.v. days 1, 5, 9): 0.95 ± 0.18 g
effect on body weight of the mouse ([3]; 25-100 mg/kg i.v. days 1, 5, 9): didn't affect the body weight of the mouse
Inhibition rate (%) [4, 8]: 26.9%
Tumor weight (g, mean ± S.D.) [4, 8]: 1.47 ± 0.18 g
Inhibition rate (%) [4, 9]: 1.0%
Tumor weight (g, mean ± S.D.) [4, 9]: 1.99 ± 0.47 g
Inhibition rate (%) [4, 10]: 86.0%
Tumor weight (g, mean ± S.D.) [4, 10]: 0.28 ± 0.42 g
Inhibition rate (%) [4, 11]: 37.4%
Tumor weight (g, mean ± S.D.) [4, 11]: 1.26 ± 0.49 g
effect on body weight of the mouse ([4]; 50-100 mg/kg i.v. three times): didn't affect the body weight of the mouse
tumor proliferation compared to the control group ([4]; three administrations): significant tumor proliferation inhibitory effect
Inhibition rate (%) [5, 12]: 20.2%
Tumor weight (g, mean ± S.D.) [5, 12]: 2.82 ± 0.51 g
Inhibition rate (%) [5, 13]: 29.4%
Tumor weight (g, mean ± S.D.) [5, 13]: 2.49 ± 0.29 g
Inhibition rate (%) [5, 14]: 26.0%
Tumor weight (g, mean ± S.D.) [5, 14]: 2.61 ± 0.40 g
Inhibition rate (%) [5, 15]: 32.1%
Tumor weight (g, mean ± S.D.) [5, 15]: 2.40 ± 0.74 g
Inhibition rate (%) [5, 16]: 34.1%
Tumor weight (g, mean ± S.D.) [5, 16]: 2.33 ± 0.62 g
Inhibition rate (%) [5, 17]: 33.7%
Tumor weight (g, mean ± S.D.) [5, 17]: 2.34 ± 0.17 g
Inhibition rate (%) [5, 18]: 44.0%
Tumor weight (g, mean ± S.D.) [5, 18]: 1.98 ± 0.45 g
Inhibition rate (%) [5, 19]: 41.2%
Tumor weight (g, mean ± S.D.) [5, 19]: 2.08 ± 0.43 g
effect on body weight of the mouse ([5]; 12.5-50 mg/kg i.v. once or twice): didn't affect the body weight of the mouse
tumor proliferation compared to the control group ([5]; one or two administrations): significant tumor proliferation inhibitory effect compared to the control group unless a part of the physiological saline solutions of irinotecan hydrochloride
time of highest SN-38 concentration in blood plasma ([6]; 10 mg/kg i.v.): immediately after injection
time of highest free (liposome-released) CPT-11 concentration in blood plasma ([6]; 10 mg/kg i.v.): immediately after injection
concentration at 1 h ([6]; male, plasma, iv, 10 mg/kg i.v. over 4 min, until 1 hour, lower limit of quantification, read-out: total CPT-11 concentration in blood plasma): < 1000 ng/mL
tumor growth compared to the control group [7]: significant suppressive effect of tumor growth
Inhibition rate (%) ([7]; 25 mg/kg i.v. days 1, 5, 9): 49.0%
Tumor weight (g, mean ± S.D.) ([7]; 25 mg/kg i.v. days 1, 5, 9): 0.64 ± 0.25 g
Inhibition rate (%) ([7]; 50 mg/kg i.v. days 1, 5, 9): 48.0%
Tumor weight (g, mean ± S.D.) ([7]; 50 mg/kg i.v. days 1, 5, 9): 0.66 ± 0.13 g
Inhibition rate (%) ([7]; 100 mg/kg i.v. days 1, 5, 9): 62.3%
Tumor weight (g, mean ± S.D.) ([7]; 100 mg/kg i.v. days 1, 5, 9): 0.48 ± 0.20 g
influence on body weight of the mouse ([7]; 25-100 mg/kg i.v. days 1, 5, 9): did not influence the body weight of the mouse
